Source: EP2186507A2, “A liquid pharmaceutical formulation comprising nicotine for the administration to the oral cavity” (McNeil AB, priority 2001, dated 2003)
Read-outs that look alike come from different tables or passages of the source.

Experiments:
[1] = From the text: Absorption of nicotine from the oral cavity to the systemic circulation is dependent on the pH of the saliva and the pKa of nicotine, which is about 7.8. Assuming a pH of the saliva of 6.8 only about 10% of the nicotine in saliva will be in the free base form. Thus, in order to promote absorption of nicotine in a free base form, which is the form predominantly absorbed through the mucosa, the pH of the saliva must be increased. At a pH of 8.8 about 90% of the nicotine in saliva will then be in the free base form.
[2] = Merck Index; cited from earlier work

Compound: CN1CCCC1c1cccnc1 (stereo not drawn) [nicotine, 3-(1-methyl-2-pyrrolidinyl)-pyridine]
- nicotine in saliva in the free base form ([1]; assuming a pH of the saliva of 6.8): about 10%
- nicotine in saliva in the free base form ([1]; at a pH of 8.8): about 90%
- amount that may kill an adult [2]: Approximately forty
